According to PubChem BioAssay (NCI):
Values joined by “and” are separate entries in the source; they are usually repeats but may differ in a detail not shown here. Equal entries are not always repeated.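 Following 48 hours of exposure in 96-well plates, responses at five concentrations were used to interpolate endpoints linearly. GI50 is the concentration that inhibits growth by half. TGI is the concentration that stops growth completely.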

Assays:
Assay in all cases: growth of human tumour cells (NCI), 48 h
[1] = test system: DU-145 prostate
[2] = test system: CAKI-1 renal
[3] = test system: MOLT-4 leukemia
[4] = test system: HT29 colon
[5] = test system: EKVX NSCLC
[6] = test system: MALME-3M melanoma
[7] = test system: 786-0 renal
[8] = test system: A549 NSCLC
[9] = test system: NCI/ADR-RES ovarian
[10] = test system: OVCAR-3 ovarian

SMILES	TGI [1] [µM]	TGI [2] [µM]	TGI [3]	TGI [4]	TGI [5] [µM]	TGI [6] [µM]	TGI [7] [µM]	TGI [8] [µM]	TGI [9] [µM]	TGI [10] [µM]	GI50 [3] [µM]	GI50 [4] [µM]	GI50 [6] [µM]	GI50 [8] [µM]	GI50 [9] [µM]	GI50 [10] [µM]
CN(C)CCNS(=O)(=O)c1ccc(N)cc1	> 100	> 100	> 100 µM	> 100 µM	> 100	> 100	> 100	> 100	> 100	31						
NC(=O)C(=Cn1c(=S)[nH]c2ccc([N+](=O)[O-])cc21)C(N)=O	> 100	> 100	> 100 µM	> 100 µM	> 100		> 100	> 100	> 100	> 100						
O=C(c1ccccn1)C1(N2CCCCC2)CCCCC1	> 100	> 100	> 100 µM	> 100 µM	> 100		> 100	> 100	> 100	> 100						
COC(=O)[C@@H](O)[C@](O)(CCC(C)C)C(=O)O[C@@H]1C(OC)=C[C@]23CCCN2CCc2cc4c(cc2[C@H]13)OCO4		7.36	6.97 µM	12.2 µM	6.09	1.94		5.19	71.4	7.15						
Nc1nc2c(c(-c3cccc(Cl)c3)n1)COC/C2=C\c1cccc(Cl)c1	> 100	> 100	> 100 µM	> 100 µM	> 100	81.9	> 100		> 100	> 100						
CC1(C)O[C@H]2OC(CO[Si](C)(C)C(C)(C)C)C(N=[N+]=[N-])[C@H]2O1 (stereo not given in full)		42.5	33.9 µM	25.5 µM	39.3	31.7	32.7	35.8	37.7	38.1						
CCC(=O)NCC1CCCN2CCCCC12 (stereo not given)	> 100	> 100	> 100 µM	> 100 µM	> 100	> 100	> 100	> 100	> 100							
CCOC(=O)Nc1sc2c(c1C#N)CCCC2	> 100	> 100	> 100 µM	> 100 µM	> 100	> 100	> 100			> 100						
COc1ccc(N=NC(=Nc2ccccc2)c2ccc(N(CCC#N)CCC#N)cc2)cc1	> 100	> 100	> 100 µM	> 100 µM	> 100		> 100	> 100	> 100	55.2						
N[C@@H](CCC(=O)NCP(=O)(O)O)C(=O)O			> 100 µM	> 100 µM	> 100	> 100	> 100	> 100	> 100	> 100						
O=[N+]([O-])c1ccc(Cl)cc1N/N=C/c1ccnc2ccccc12	> 100	> 100	> 100 µM	> 100 µM	> 100		> 100	> 100	> 100	> 100						
COc1cc(S(=O)(=O)Nc2nc(-c3ccc(N4C(=O)C(CC(=O)O)SC4c4cccs4)cc3)cs2)ccc1Cl (stereo not given)	> 100	> 100	64.6 µM	> 100 µM		72.2	> 100	> 100	76.6	> 100						
Oc1ccccc1CNCc1nc2ccccc2[nH]1	> 100	> 100	> 100 µM	> 100 µM	> 100		> 100	> 100	61.5	> 100						
COc1ccc2[nH]cc(/C=C(/C)c3ccncc3)c2c1		> 100	47.9 µM and > 100 µM	13.1 µM and 10.9 µM	> 100	21.9		> 100		> 100	2.68	3.64	3.14	5.48	2.11	4.16
C/C(=C\CBr)CCC(Br)C(C)(C)Br (stereo not given)	> 100		> 100 µM	> 100 µM	> 100	> 100	> 100	> 100	> 100	> 100						
CC(=O)/C=C/C1=C(C)CCCC1(C)CC(C)C (stereo not given)	> 100	> 100	41.5 µM	87.5 µM	> 100	89.1	45.2	> 100		83						
Oc1ccc(Cc2cc(Cc3ccc(O)cc3)cc(Cc3ccc(O)cc3)c2)cc1	> 50		> 50 µM	> 50 µM	> 50	> 50	> 50	> 50	> 50	> 50						
